In US9809573B2, “Substituted pyridine derivatives useful as GSK-3 inhibitors” (priority 2013, dated 2017):
Like-named read-outs stand apart in the source and are kept apart here.

Legend:
GSK3β = GSK3β (Homo sapiens, UniProt P49841); assay: GSK3β kinase assay (Caliper LabChip3000, fluoresceinated peptide substrate); format: biochemical
Outline: (§1)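 Readout: electrophoretic resolution of phosphorylated from unphosphorylated peptide on a LabChip3000. Reactions incubated 20 h at room temperature before termination with 35 mM EDTA. Eleven-concentration curves gave IC50 via non-linear regression.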

GSK3α = GSK3α (Homo sapiens, UniProt P49840); assay: biochemical
Outline: as §1

pTau = pTau assay (method not described); format: cell-based
[1] = first value of the cell, 250 pM enzyme, 20 uM ATP, 20 hours at room temperature, read-out: GSK3β/α (nM): GSK3β IC50
[2] = second value of the cell, 250 pM enzyme, 20 uM ATP, 20 hours at room temperature, read-out: GSK3β/α (nM): GSK3α IC50

GSK3β, sequence (P49841 whole entry, species assumed): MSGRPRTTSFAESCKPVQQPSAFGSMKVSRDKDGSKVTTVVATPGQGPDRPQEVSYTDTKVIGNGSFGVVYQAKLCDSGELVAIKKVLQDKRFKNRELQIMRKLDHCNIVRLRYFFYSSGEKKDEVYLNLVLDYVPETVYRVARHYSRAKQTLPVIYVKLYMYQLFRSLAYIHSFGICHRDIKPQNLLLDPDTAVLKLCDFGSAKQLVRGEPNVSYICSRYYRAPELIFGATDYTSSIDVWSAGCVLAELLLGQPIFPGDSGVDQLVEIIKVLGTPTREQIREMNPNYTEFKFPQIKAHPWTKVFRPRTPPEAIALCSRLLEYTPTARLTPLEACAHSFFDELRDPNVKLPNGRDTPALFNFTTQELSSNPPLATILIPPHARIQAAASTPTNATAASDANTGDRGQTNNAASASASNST
GSK3α, sequence (P49840 whole entry, species assumed): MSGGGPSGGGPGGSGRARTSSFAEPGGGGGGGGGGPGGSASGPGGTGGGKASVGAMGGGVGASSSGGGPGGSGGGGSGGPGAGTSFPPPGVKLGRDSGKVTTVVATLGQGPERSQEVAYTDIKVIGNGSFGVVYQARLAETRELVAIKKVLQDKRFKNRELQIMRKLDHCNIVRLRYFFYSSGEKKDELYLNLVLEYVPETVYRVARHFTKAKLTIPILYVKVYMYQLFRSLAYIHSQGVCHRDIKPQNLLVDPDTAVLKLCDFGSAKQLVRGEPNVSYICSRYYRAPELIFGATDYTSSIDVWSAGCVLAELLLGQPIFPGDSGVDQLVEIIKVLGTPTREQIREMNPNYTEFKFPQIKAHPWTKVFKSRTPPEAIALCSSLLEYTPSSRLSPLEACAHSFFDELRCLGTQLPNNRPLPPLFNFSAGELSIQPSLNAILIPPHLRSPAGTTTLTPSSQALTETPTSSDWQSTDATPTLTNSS

SMILES | IC50 (GSK3β; [1]) | IC50 (GSK3α; [2]) | IC50 (pTau; read-out: pTau) | IC50 (GSK3β) | IC50 (GSK3α) | IC50 (pTau; read-out: pTau (nM))
O=C(Nc1cnccn1)c1ccnc(NC(=O)C2CC2)c1 [Example 170, 2-(Cyclopropanecarboxamido)-N-(pyrazin-2-yl)isonicotinamide] | 8.1 nM | 2.9 nM | 570 nM | – | – | –
O=C(Nc1cnn(CC(F)(F)F)c1)c1ccnc(NC(=O)C2CC2)c1 [Example 172, 2-(cyclopropanecarboxamido)-N-(1-(2,2,2-trifluoroethyl)-1H-pyrazol-4-yl)isonicotinamide] | 35 nM | 14 nM | 700 nM | – | – | –
O=C(Nc1cncnc1N1CCC(F)(F)CC1)c1ccnc(NC(=O)C2CC2)c1 [Example 179, 2-(Cyclopropanecarboxamido)-N-(4-(4,4-difluoropiperidin-1-yl)pyrimidin-5-yl)isonicotinamide] | 160 nM | 40 nM | 3000 nM | – | – | –
O=C(Nc1cncc(-c2ccccc2F)n1)c1ccnc(NC(=O)C2CC2)c1 [Example 180, 2-(Cyclopropanecarboxamido)-N-(6-(2-fluorophenyl)pyrazin-2-yl)isonicotinamide] | 6.2 nM | 1.2 nM | 190 nM | – | – | –
NC(=O)c1cnc(NC(=O)c2ccnc(NC(=O)C3CC3)c2)s1 [Example 183, 2-(2-(cyclopropanecarboxamido)isonicotinamido)thiazole-5-carboxamide] | 530 nM | 200 nM | ≥ 10000 nM | – | – | –
Cc1cccc2sc(NC(=O)c3ccnc(NC(=O)C4CC4)c3)nc12 [Example 184, 2-(cyclopropanecarboxamido)-N-(4-methylbenzo[d]thiazol-2-yl)isonicotinamide] | 800 nM | 170 nM | ≥ 10000 nM | – | – | –
CC(C)C(=O)Nc1cc(C(=O)Nc2cnccc2-c2ccccc2)ccn1 [Example 185, 2-Isobutyramido-N-(4-phenylpyridin-3-yl)isonicotinamide] | – | 4.2 nM | 180 nM | 1.4 nM | – | –
CC(C)C(=O)Nc1cc(C(=O)Nc2cnccc2-c2ccc(Cl)cc2)ccn1 [Example 186, N-(4-(4-chlorophenyl)pyridin-3-yl)-2-isobutyramidoisonicotinamide] | – | 6.5 nM | 360 nM | 20 nM | – | –
CC(C)C(=O)Nc1cc(C(=O)Nc2cnc(F)cc2OCC(F)F)ccn1 [Example 187, N-(4-(2,2-difluoroethoxy)-6-fluoropyridin-3-yl)-2-isobutyramidoisonicotinamide] | 2.7 nM | 1.2 nM | 210 nM | – | – | –
CC(C)C(=O)Nc1cc(C(=O)Nc2cnccc2OCCN2CCOCC2)ccn1 [Example 189, 2-Isobutyramido-N-(4-(2-morpholinoethoxy)pyridin-3-yl)isonicotinamide] | – | 1.1 nM | 99 nM | 2.3 nM | – | –
CC(C)C(=O)Nc1cc(C(=O)Nc2cnccc2OCCC(C)(C)O)ccn1 [Example 190, N-(4-(3-hydroxy-3-methylbutoxy)pyridin-3-yl)-2-isobutyramidoisonicotinamide] | – | – | – | 3.3 nM | 1.4 nM | 19 nM
CCC1(c2cc(Cl)ncc2NC(=O)c2ccnc(NC(=O)C(C)C)c2)OCCO1 [Example 191, N-(6-chloro-4-(2-ethyl-1,3-dioxolan-2-yl)pyridin-3-yl)-2-isobutyramidoisonicotinamide] | 0.08 nM | 0.12 nM | 12 nM | – | – | –
CC(C)C(=O)Nc1cc(C(=O)Nc2cncc(-c3cc(F)ccc3F)c2)ccn1 [Example 192, N-(5-(2,5-difluorophenyl)pyridin-3-yl)-2-isobutyramidoisonicotinamide] | – | 1.4 nM | 94 nM | 4.6 nM | – | –
CC(C)C(=O)Nc1cc(C(=O)Nc2cncc(-c3ccccc3F)c2)ccn1 [Example 193, N-(5-(2-fluorophenyl)pyridin-3-yl)-2-isobutyramidoisonicotinamide] | – | 2.2 nM | 85 nM | 5.6 nM | – | –
CC(C)C(=O)Nc1cc(C(=O)Nc2cnccc2C(=O)c2ccccc2)ccn1 [Example 196, N-(4-benzoylpyridin-3-yl)-2-isobutyramidoisonicotinamide] | 13 nM | 5.9 nM | 520 nM | – | – | –
CC(C)C(=O)Nc1cc(C(=O)Nc2cnccc2C(F)(F)c2ccccc2)ccn1 [Example 198, N-(4-(difluoro(phenyl)methyl)pyridin-3-yl)-2-isobutyramidoisonicotinamide] | 390 nM | 230 nM | 9900 nM | – | – | –
CC(C)C(=O)Nc1cc(C(=O)Nc2cnccc2C(F)c2ccccc2)ccn1 (stereo not drawn) [Example 199, N-(4-(fluoro(phenyl)methyl)pyridin-3-yl)-2-isobutyramidoisonicotinamide] | 10 nM | 12 nM | 720 nM | – | – | –
CC(C)C(=O)Nc1cc(C(=O)Nc2cnccc2OCC2(C)CC2)ccn1 [Example 201, 2-isobutyramido-N-(4-((1-methylcyclopropyl)methoxy)pyridin-3-yl)isonicotinamide] | 1.1 nM | 0.4 nM | 26 nM | – | – | –
CC(C)C(=O)Nc1cc(C(=O)Nc2cnccc2OCC(C)(F)F)ccn1 [Example 202, N-(4-(2,2-Difluoropropoxy)pyridin-3-yl)-2-isobutyramidoisonicotinamide] | – | – | – | 1 nM | 0.46 nM | 50 nM
CC(C)C(=O)Nc1cc(C(=O)Nc2cnccc2OCC(F)(F)F)ccn1 [Example 203, 2-Isobutyramido-N-(4-(2,2,2-trifluoroethoxy)pyridin-3-yl)isonicotinamide] | – | 0.35 nM | 70 nM | 0.72 nM | – | –
CC(C)C(=O)Nc1cc(C(=O)Nc2cnccc2OCC(F)F)ccn1 [Example 204, N-(4-(2,2-Difluoroethoxy)pyridin-3-yl)-2-isobutyramidoisonicotinamide] | – | 0.97 nM | 41 nM | 1.8 nM | – | –
CC(C)(F)C(=O)Nc1cc(C(=O)Nc2cnccc2-c2ccccc2)ccn1 [Example 205, 2-(2-Fluoro-2-methylpropanamido)-N-(4-phenylpyridin-3-yl)isonicotinamide] | – | 52 nM | – | 49 nM | – | 5100 nM
CC(C)C(=O)Nc1cc(C(=O)Nc2cncc(-c3ccccc3F)n2)ccn1 [Example 207, N-(6-(2-fluorophenyl)pyrazin-2-yl)-2-isobutyramidoisonicotinamide] | 2.5 nM | 1.1 nM | 160 nM | – | – | –

The next lines start with results.

IC50 (GSK3β; [1]) | IC50 (GSK3α; [2]) | IC50 (pTau; read-out: pTau) | SMILES | IC50 (GSK3β) | IC50 (GSK3α) | IC50 (pTau; read-out: pTau (nM))
2.8 nM | 1.5 nM | 170 nM | O=C(Nc1cnccc1-c1ccc(I)cc1)c1ccnc(NC(=O)C2CC2)c1 [Example 169, 2-(cyclopropanecarboxamido)-N-(4-(4-iodophenyl)pyridin-3-yl)isonicotinamide] | – | – | –
370 nM | 170 nM | 4000 nM | CC(C)n1cc(NC(=O)c2ccnc(NC(=O)C3CC3)c2)cn1 [Example 171, 2-(cyclopropanecarboxamido)-N-(1-isopropyl-1H-pyrazol-4-yl)isonicotinamide] | – | – | –
18 nM | 14 nM | 2500 nM | O=C(Nc1cncs1)c1ccnc(NC(=O)C2CC2)c1 [Example 173, 2-(cyclopropanecarboxamido)-N-(thiazol-5-yl)isonicotinamide] | – | – | –
68 nM | 33 nM | 3700 nM | Cc1c(NC(=O)c2ccnc(NC(=O)C3CC3)c2)cnn1C [Example 175, 2-(cyclopropanecarboxamido)-N-(1,5-dimethyl-1H-pyrazol-4-yl)isonicotinamide] | – | – | –
14 nM | 12 nM | 1200 nM | O=C(Nc1cncnc1)c1ccnc(NC(=O)C2CC2)c1 [Example 178, 2-(Cyclopropanecarboxamido)-N-(pyrimidin-5-yl)isonicotinamide] | – | – | –
1300 nM | 470 nM | ≥ 10000 nM | O=C(Nc1nc2cnccc2s1)c1ccnc(NC(=O)C2CC2)c1 [Example 182, 2-(cyclopropanecarboxamido)-N-(thiazolo[4,5-c]pyridin-2-yl)isonicotinamide] | – | – | –
39 nM | 19 nM | 2200 nM | CC(C)C(=O)Nc1cc(C(=O)Nc2cnccc2OCCN2CCCC2)ccn1 [Example 188, 2-Isobutyramido-N-(4-(2-(pyrrolidin-1-yl)ethoxy)pyridin-3-yl)isonicotinamide] | – | – | –
3.8 nM | 1.4 nM | 140 nM | CC(C)C(=O)Nc1cc(C(=O)Nc2cncc(-c3cccc(F)c3F)c2)ccn1 [Example 194, N-(5-(2,3-difluorophenyl)pyridin-3-yl)-2-isobutyramidoisonicotinamide] | – | – | –
10 nM | 1.5 nM | 107 nM | CC(C)C(=O)Nc1cc(C(=O)Nc2cncc(-c3ccccc3Cl)c2)ccn1 [Example 195, N-(5-(2-chlorophenyl)pyridin-3-yl)-2-isobutyramidoisonicotinamide] | – | – | –
19 nM | 12 nM | 320 nM | CC(C)C(=O)Nc1cc(C(=O)Nc2cncc(C(O)c3ccccc3)c2)ccn1 (stereo not drawn) [Example 197, N-(5-(hydroxy(phenyl)methyl)pyridin-3-yl)-2-isobutyramidoisonicotinamide] | – | – | –
6.1 nM | 4.7 nM | 510 nM | C=C(c1ccccc1)c1ccncc1NC(=O)c1ccnc(NC(=O)C(C)C)c1 [Example 200, 2-Isobutyramido-N-(4-(1-phenylvinyl)pyridine-3-yl)isonicotinamide] | – | – | –
3 nM | 2.1 nM | 190 nM | CC(C)C(=O)Nc1cc(C(=O)Nc2cnccc2N2CCC(F)(F)CC2)c(F)cn1 [Example 206, N-(4-(4,4-difluoropiperidin-1-yl)pyridin-3-yl)-5-fluoro-2-isobutyramidoisonicotinamide] | – | – | –
